This note sets out measurements from article PMC12308784, “Organometallic Half-Sandwich Complexes of 1,10-Phenanthroline Derivatives with Improved Solubility, Albumin-Binding, and Nanoformulation Potential Targeting Drug Resistance in Cancer” (Inorganic Chemistry, 2025).

Data set [1] can be described thus: n-octanol/water distribution coefficient, shake-flask. In kind it is physicochemical. Particulars: n-octanol/20 mM phosphate buffer, pH = 7.4, t = 25 °C; for logD at 4 h: n-octanol/buffered aqueous solution. The source says:
The bioactive compounds must cross the cell membrane, which is influenced by their lipophilicity. Therefore, we characterized the lipophilicity of the complexes using n-octanol–water partitioning at three different chloride ion concentrations at pH 7.4. As the H2O/Cl^– exchange alters the charge of the complexes, it consequently affects their lipophilicity. The ratio of chlorido and aqua complexes depends on the actual Cl^– concentration and the chloride affinity of the complex. Chloride ion concentrations were chosen to mimic physiological conditions, specifically those found in blood (100 mM), cytosol (24 mM), and the nucleus (4 mM).
The traditional shake-flask method was used to obtain distribution coefficients of the ligands as well as of the complexes in n-octanol/buffered aqueous solution (20 mM phosphate, pH = 7.4) at different chloride ion concentrations (4, 24, and 100 mM) using UV–vis spectrophotometry (Agilent Cary 8454 diode array spectrophotometer) for the analysis. The compounds were dissolved in buffered aqueous solutions previously saturated with n-octanol. Then the aqueous and n-octanol phases were gently mixed in different volume ratios (using 1:60 for the ligands, 1:10 for the RhCp* and the RuCym complexes ratios of n-octanol to buffered aqueous solution volume) for 4 h, followed by phase separation. Then the UV–vis spectrum of the original aqueous sample and the aqueous and n-octanol phases was recorded and distribution coefficients (D) were calculated according to the formula described in our former work in detail.

A short description of data set [2]: pKa of the coordinated aqua ligand by UV–vis pH titration. The following applies: [M(arene/arenyl)(ligand)(H2O)]2+; chloride-free; I = 0.2 M KNO3; t = 25 °C. The data set is classed as physicochemical. The method, then:
The K a values of the complexes with BP and DCP ligands for the [M(η^6-arene/η^5-arenyl)(ligand)(H2O)]^2+ ⇌ [M(η^6-arene/η^5-arenyl)(ligand)(OH)]^+ + H^+ process also provide valuable insights into their behavior in aqueous solutions. In order to determine the K a values, UV–vis spectra were recorded at different pH values under chloride-free conditions, as shown for the complex RuCymDCP in Figure , and the determined pK a values are presented in Table . […] However, at higher pH values, spectral shifts indicate the onset of aqua ligand deprotonation. For RuCym complexes, the calculated pK a values (Table ) indicate moderate acidity and a higher tendency for deprotonation at physiological pH compared with the RhCp* complexes. […] This lower value is most likely due to the stronger tendency of IrCp*, as well as RuCym, to undergo hydrolysis compared to RhCp*.
An Agilent Cary 8454 diode array spectrophotometer was utilized to obtain UV–vis spectra in the wavelength range 190–1100 nm; the path length was 1 cm. The concentrations of the complexes were between 20 and 100 μM. The actual pH of the samples were measured with an Orion 710A pH-meter equipped with a Metrohm combined electrode (type 6.0234.100) and the pH titrations were performed by a KOH solution using a Metrohm 665 Dosimat buret at 25.0 °C. […] The computer program HypSpec was used to calculate the equilibrium constants.

Data set [3] addresses T1, HSA Sudlow’s site II (IIIA subdomain) (Homo sapiens, UniProt P02768).
T1 construct: purchased Sigma-Aldrich A8763
The data set can be described thus: dansylglycine (DG) site marker displacement on HSA. The following applies: HSA–DG 1:1; PBS’; t = 25 °C. The data set is classed as binding. The method, then: To further explore the binding affinity and site specificity of the metal complexes, site marker displacement experiments were conducted using WF and DG, which bind to Sudlow’s site I (in IIA subdomain) and to Sudlow’s site II (in IIIA subdomain), respectively. The displacement of these fluorescence probes directly confirms the interactions of the metal complexes with the respective binding sites. The displacement constants of WF (KWF′) by the metal complexes (Figure c,d, Table ) were correlated with the Trp-214 quenching data.
Fluorescence measurements were carried out on a Fluoromax (Horiba Jobin Yvon) spectrofluorometer using a 1 cm × 1 cm quartz cuvette in order to assess the interactions of the complexes with HSA in PBS’ medium at 25 °C. The calculated quenching or displacement conditional constants for the HSA-complex species were obtained using the computer program HypSpec. Calculations always were based on data obtained from at least two independent measurements. Self-absorbance and inner filter effect had to be taken into account, and corrections were made as it was described in our former works. ,
Table S7. Conditions applied for steady -state spectrofluorometric measurements.
cHSA cMARKER ccomplex λEX λEM slit widths
(μM) (μM) (μM) (nm) (nm) EX/EM […]
S.; Deflon, V. M.; Ferreira, A. G.; Cominetti, M. R.; Batista, A. A. Cytotoxicity of Ru(II) Piano-
Stool Complexes with Chloroquine and Chelating Ligands against Breast and Lung Tumor Cells:
Interactions with DNA and BSA. J Inorg Biochem 2015, 153, 150–161.
Van Deun, R.; Van Hecke, K. Antitumor Activity of Organoruthenium Complexes with Chelate

T1 sequence (P02768 25-609): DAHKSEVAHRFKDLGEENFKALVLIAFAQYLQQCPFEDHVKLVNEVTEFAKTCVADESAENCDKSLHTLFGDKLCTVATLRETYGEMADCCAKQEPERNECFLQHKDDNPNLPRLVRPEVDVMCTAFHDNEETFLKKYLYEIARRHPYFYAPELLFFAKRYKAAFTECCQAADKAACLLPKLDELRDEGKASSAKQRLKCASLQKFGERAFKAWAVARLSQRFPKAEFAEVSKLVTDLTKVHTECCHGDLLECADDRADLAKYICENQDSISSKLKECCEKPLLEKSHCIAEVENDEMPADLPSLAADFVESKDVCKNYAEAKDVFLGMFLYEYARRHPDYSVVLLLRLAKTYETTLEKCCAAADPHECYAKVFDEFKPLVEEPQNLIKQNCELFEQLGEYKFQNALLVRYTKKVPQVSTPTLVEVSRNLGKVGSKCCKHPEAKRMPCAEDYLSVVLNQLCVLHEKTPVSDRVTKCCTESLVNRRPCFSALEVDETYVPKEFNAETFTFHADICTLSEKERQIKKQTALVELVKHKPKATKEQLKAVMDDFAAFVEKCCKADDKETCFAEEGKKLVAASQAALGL

For orientation: logD means lipophilicity at a set pH, counting ionised and neutral species. Lower therefore signals a more hydrophilic compound. In data set [1] (c(Cl–) = 100 mM), `c1ccc(-c2ccnc3c2ccc2c(-c4ccccc4)ccnc23)cc1` [BP, 4,7-diphenyl-1,10-phenanthroline] displayed a logD at 4 h of 3.69.

For the compound `Clc1ccnc2c1ccc1c(Cl)ccnc12` [DCP, 4,7-dichloro-1,10-phenanthroline], the logD at 4 h in data set [1] (c(Cl–) = 100 mM) was 2.4.

As to `Cc1c(C)c(C)[c-](C)c1C.Clc1ccnc2c1ccc1c(Cl)ccnc12.[Cl-].[Cl-].[Rh+3]` [RhCp*DCP, [Rh(III)(η^5-C5Me5)(4,7-dichloro-1,10-phenanthroline)Cl]Cl], the “pK a [ML(H2O)]” value in data set [2] was 8.33 ± 0.05. In addition, the logD result is “–1.03 ± 0.03” in data set [1] (c(Cl–) = 4 mM), “–0.59 ± 0.02” in data set [1] (c(Cl–) = 24 mM) and “–0.38 ± 0.02” in data set [1] (c(Cl–) = 100 mM). The “DG displacement / interaction with Sudlow’s site II” value (“DG displacement / interaction” below) in data set [3] is given as “no significant interaction”.

Consider `Cc1ccc(C(C)C)cc1.[Cl-].[Cl-].[Ru+2].c1ccc(-c2ccnc3c2ccc2c(-c4ccccc4)ccnc23)cc1` [RuCymBP, [Ru(II)(η^6-p-cymene)(bathophenanthroline)Cl]Cl], for which, in data set [2], the “pK a [ML(H2O)]” value amounted to 7.57 ± 0.06. Besides, the logD entry in data set [1] (c(Cl–) = 4 mM) was “+1.46 ± 0.02”; in data set [1] (c(Cl–) = 24 mM), “+1.97 ± 0.02”; in data set [1] (c(Cl–) = 100 mM) it was “+2.48 ± 0.02”. Besides, in data set [3], the “DG displacement / interaction” value is listed as “no significant interaction”.

As for `Cc1ccc(C(C)C)cc1.Clc1ccnc2c1ccc1c(Cl)ccnc12.[Cl-].[Cl-].[Ru+2]` [RuCymDCP, [Ru(II)(η^6-p-cymene)(4,7-dichloro-1,10-phenanthroline)Cl]Cl], in data set [2], the “pK a [ML(H2O)]” value turned out to be 7.21 ± 0.06. The figures for the log distribution coefficient (logD) result in data set [1] (c(Cl–) = 4 mM), in data set [1] (c(Cl–) = 24 mM) and in data set [1] (c(Cl–) = 100 mM) were “–0.55 ± 0.04”, “+0.04 ± 0.12” and “+0.35 ± 0.12”, respectively. Further, the “DG displacement / interaction” value in data set [3] was “no significant interaction”.

As to “[Rh(III)(η^5-C5Me5)(bathophenanthroline)Cl]Cl [RhCp*BP]”, the “pK a [ML(H2O)]” value in data set [2] was 8.81 ± 0.06. In addition, the logD entry in data set [1] (c(Cl–) = 4 mM) is “+0.82 ± 0.01”; in data set [1] (c(Cl–) = 24 mM) it was “+1.35 ± 0.03”. The “DG displacement / interaction” value in data set [3] is given as “able to displace the DG”.
